Assay results published in ChEMBL document CHEMBL1777784, “New antiplasmodial indole alkaloids from Hunteria zeylanica” (Bioorg Med Chem Lett, 2011).
pIC50: −log10 of the molar value.

Experiments:
[1] = test system: HL-60; experiment: Cytotoxicity against human HL60 cells; type: cell-based
[2] = test system: Plasmodium falciparum; experiment: Antiplasmodial activity against Plasmodium falciparum 3D7 by Geimsa staining method; type: functional, organism-based
[3] = Selectivity index, ratio of IC50 for Plasmodium falciparum 3D7 to IC50 for human HL60 cells; parameters: species or system HL-60

pIC50 ([2]; Plasmodium falciparum, 3D7) | Compound | pIC50 [1] | pIC50 [2] | Ratio IC50 [3]
 | C/C=C1/C[N@@+]2(C)CCc3c([nH]c4ccc(O)c([C@@H]5C[C@@]6(CC)CCCN7CCc8c(n5c5ccccc85)[C@H]76)c34)[C@H]2C[C@@H]1CCO (stereo in doubt; 4) [BISNICALATERINE B] | < 4.30 | 5.95 | >44
 | C/C=C1/C[N@@+]2(C)CCc3c([nH]c4ccc(O)c([C@@H]5C[C@@]6(CC)CCCN7CCc8c(n5c5ccccc85)[C@H]76)c34)[C@H]2C[C@@H]1CCO (stereo in doubt; 5) [BISNICALATERINE B] |  | 7.30 | >1000
5.36 | C/C=C1/CN(C)[C@H]2Cc3c([nH]c4ccccc34)[C@H](n3c4c(c5ccccc53)C[C@H]3[C@@H](C(=O)OC)[C@H](C[C@H]4O)/C(=C\C)CN3C)C[C@H]1[C@@H]2C(=O)OC [BISNICALATERINE A] | 4.79 |  | 3.7
6.96 | CCc1c[n+]2ccc3c4ccccc4[nH]c3c2cc1CCO [NICALATERINE A] | < 4.30 |  | >450

Compound | pIC50 ([2]; Plasmodium falciparum, 3D7) | pIC50 [1] | pIC50 [2] | Ratio IC50 [3]
C/C=C1/C[N@@+]2(C)CCc3c([nH]c4ccc(O)c(C5=C[C@@]6(CC)CCCN7CCc8c(n5c5ccccc85)[C@H]76)c34)[C@H]2C[C@@H]1CCO [BISNICALATERINE D] | < 4.30 | < 4.30 |  | 
